Results as given in PMC12880737 (Journal of medicinal chemistry, 2025).

Tests used:
[1] = biological target: his6-GAS41 YEATS (13-158) (Homo sapiens, UniProt O95619); assay: AlphaLISA competition assay with 21-biot probe
GAS41 YEATS domain [2] = biological target: T1, GAS41 YEATS domain (Homo sapiens, UniProt O95619); assay: Fluorescence polarization competition assay with H3K23crK27cr-FAM probe; format: binding
Target sequence in this assay (O95619 1-148): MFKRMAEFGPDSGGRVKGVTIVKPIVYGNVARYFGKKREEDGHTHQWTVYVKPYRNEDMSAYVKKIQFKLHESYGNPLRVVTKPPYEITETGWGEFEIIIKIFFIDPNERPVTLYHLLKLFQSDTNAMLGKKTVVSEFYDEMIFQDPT

[3] = biological target: NanoLuc-tagged BRD4-BD1 and Halo-tagged histone H3.3 (Homo sapiens, UniProt O60885); assay: BRD4-BD1 NanoBRET assay; format: cell-based; conditions: Figure S3
H1299 cells = assay: Wound healing assay; format: cell-based; conditions: H1299, 24 h
[4] = biological target: NanoLUC-GAS41 and Halo-H3.3 (Homo sapiens, UniProt O95619); assay: GAS41 NanoBRET assay in HEK293T cells; format: cell-based
CDKN1A = CDKN1A gene expression by RT-qPCR in H1299 cells; format: cell-based; conditions: 7 days
GAS41 YEATS domain [5] = biological target: T1, GAS41 YEATS domain; assay: 1H-15N HSQC NMR binding experiments; conditions: 50 μM 15N GAS41 YEATS, 100 μM compound
Target sequence in this assay (O95619 18-190): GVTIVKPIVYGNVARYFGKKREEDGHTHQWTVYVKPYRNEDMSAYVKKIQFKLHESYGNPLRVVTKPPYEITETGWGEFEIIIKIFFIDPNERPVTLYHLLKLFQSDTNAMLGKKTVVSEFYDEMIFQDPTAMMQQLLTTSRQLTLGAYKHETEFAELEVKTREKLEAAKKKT

Chain of his6-GAS41 YEATS (13-158) (O95619 13-158): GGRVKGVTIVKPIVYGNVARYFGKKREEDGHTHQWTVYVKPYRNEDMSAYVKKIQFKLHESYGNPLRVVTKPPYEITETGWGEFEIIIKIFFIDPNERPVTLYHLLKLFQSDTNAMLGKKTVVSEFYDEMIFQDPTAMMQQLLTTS
Chain of NanoLUC-GAS41 and Halo-H3.3 (O95619 whole entry): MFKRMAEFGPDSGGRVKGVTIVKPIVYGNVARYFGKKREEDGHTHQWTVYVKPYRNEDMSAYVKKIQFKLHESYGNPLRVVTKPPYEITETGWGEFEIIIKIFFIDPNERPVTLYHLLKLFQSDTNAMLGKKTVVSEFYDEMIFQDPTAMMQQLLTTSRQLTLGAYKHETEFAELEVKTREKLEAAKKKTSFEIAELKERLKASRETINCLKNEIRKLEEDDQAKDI

| IC50 [1] | IC50 (GAS41 YEATS domain [2]) | SMILES | further results |
| --- | --- | --- | --- |
| 0.6 ± 0.08 µM | 1.3 ± 0.4 µM | O=C(NCc1ccc(-c2cnc(C3CN(C(=O)c4ccc(NC(=O)[C@@H]5CCCN5)s4)C3)s2)cc1)C1CCCC1 [Compound 30, (S)-N-(5-(3-(5-(4-(cyclopentanecarboxamidomethyl)phenyl)thiazol-2-yl)azetidine-1-carbonyl)thiophen-2-yl)pyrrolidine-2-carboxamide] |  |
| 0.2 ± 0.08 µM | 1.1 ± 0.01 µM | O=C(NCc1ccc(-c2cnc(C3CN(C(=O)c4ccc(NC(=O)[C@@H]5CCCN5)s4)C3)s2)cc1)c1ccccc1 [Compound 31, (S)-N-(5-(3-(5-(4-(benzamidomethyl)phenyl)thiazol-2-yl)azetidine-1-carbonyl)thiophen-2-yl)pyrrolidine-2-carboxamide] |  |
| 1.4 ± 0.33 µM | 3.4 ± 0.13 µM | CC(=O)NCc1ccc(-c2cnc(C3CN(C(=O)c4ccc(NC(=O)[C@@H]5CCCN5)s4)C3)s2)c(Cl)c1 [Compound 35, (S)-N-(5-(3-(5-(4-(acetamidomethyl)-2-chlorophenyl)thiazol-2-yl)azetidine-1-carbonyl)thiophen-2-yl)pyrrolidine-2-carboxamide] |  |
|  |  | CCC(=O)NCc1ccc(-c2cnc(C3CN(C(=O)c4ccc(NC(=O)[C@@H]5CC(C)(C)CN5)s4)C3)s2)c2ccccc12 [Compound 39, (S)-4,4-dimethyl-N-(5-(3-(5-(4-(propionamidomethyl)naphthalen-1-yl)thiazol-2-yl)azetidine-1-carbonyl)thiophen-2-yl)pyrrolidine-2-carboxamide] | activity in BRD4-BD1 NanoBRET assay [3]: no activity; scratch healing (H1299 cells): slowed scratch healing |
| > 50 µM | 118 ± 7.7 µM | CCC(=O)NCc1ccc(-c2cnc(C3CN(C(=O)c4cnc(NC(=O)[C@@H]5CC(C)(C)CN5)s4)C3)s2)c2ccccc12 [Compound 40, (S)-4,4-dimethyl-N-(5-(3-(5-(4-(propionamidomethyl)naphthalen-1-yl)thiazol-2-yl)azetidine-1-carbonyl)thiazol-2-yl)pyrrolidine-2-carboxamide] | IC50 [4]: > 25 µM; levels of CDKN1A (CDKN1A): but not DLG-41nc strongly enhanced levels of CDKN1A; amide perturbations in 1H-15N HSQC NMR (GAS41 YEATS domain [5]): no perturbations |
|  |  | Cc1sc2c(c1C)C(c1ccc(Cl)cc1)=N[C@@H](CC(=O)OC(C)(C)C)c1nnc(C)n1-2 [JQ1, reference compound] | activity in GAS41 BRET assay ([4]; Figure S3): no activity |
